# Tests used:
# [1] = Sink Conditions dissolution testing of Formulation C5-12; format: physicochemical; conditions: N = 6
# Procedure: The release profiles of Formulation C5-12 of Example 1 were evaluated in a Sink Conditions dissolution study. The study was conducted in 900 mL of dissolution medium using a standard USP dissolution Apparatus 2 (paddle) operating at 100 RPM at 37±0.5° C. The dissolution medium was a 0.05 M sodium phosphate buffer pH 6.8 with 15 mM cTAB as a surfactant.
# [2] = Human pharmacokinetic study, Example 5 Arm I (single dose, replicated crossover); format: in vivo; conditions: both sexes, human, oral, single dose, non-fasting; for half-life / AUC(0-t) / AUC(0-inf) / Tmax: blood; for Cmax: in vivo
# Summary of the method: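 Single-dose, randomized, four-period, two-sequence replicated crossover in 88 healthy adults, periods separated by at least 10 days. Oral dosing in the morning with about 240 mL water, about 30 min after starting a standardized breakfast. Serial blood samples collected over 72 h after each dose.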
# [3] = Human pharmacokinetic study, Example 4 Arm III (14-day multiple dose, steady state); format: in vivo
# [4] = Solubility (general statement); format: physicochemical
# [5] = Human pharmacokinetic study, Example 4 Arm II (single dose, crossover); format: in vivo; conditions: both sexes, human, oral, Example 4 Arm II, single dose, non-fasting, N = 13; for half-life / AUC(0-t) / AUC(0-inf) / Tmax: blood; for AUC(0-t): read-out: AUCt, geometric mean; for AUC(0-inf): read-out: AUC∞, geometric mean; for Tmax: read-out: Tmax; for concentration at 24 h / Cmax: in vivo; for concentration at 24 h: read-out: C24, geometric mean; for Cmax: read-out: Cmax, geometric mean
# Summary of the method: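 Healthy adult men and women (N=30 across Arms I and II) randomised to crossover regimen sequences; single oral dose with ~240 mL water ~30 min after a standardised breakfast; one regimen given an evening dose after a snack.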
# [6] = Human pharmacokinetic study, Example 5 Arm II (multiple dose, crossover); format: in vivo; conditions: Example 5 Arm II; for β, geometric mean / half-life / AUC / concentration at 24 h / Cmax / Tmax: multiple dose 14 days, non-fasting, N = 63; for half-life / AUC / concentration at 24 h / Cmax / Tmax: both sexes, human, blood, oral; for AUC: read-out: AUC24, geometric mean; for concentration at 24 h: read-out: C24, geometric mean; for Cmax: read-out: Cmax, geometric mean; for Tmax: read-out: Tmax, first value (geometric mean)
# Summary of the method: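 Multiple-dose two-period randomized crossover in 66 healthy adults: oral dosing for 14 days per period, ≥10-day separation, taken with ~240 mL water about 30 min after a standardized breakfast. Serial blood samples for pharmacokinetics were collected 72 hours after dosing in each period.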
# [7] = Permeability (general statement); format: in vitro ADME; conditions: free acid of Compound 4; gastrointestinal tract
# [8] = 4 hours, pH 6.8 buffer, 15 mM cTAB
# [9] = 6 hours, pH 6.8 buffer, 15 mM cTAB
# [10] = 8 hours, pH 6.8 buffer, 15 mM cTAB
# [11] = 12 hours, pH 6.8 buffer, 15 mM cTAB
# [12] = 16 hours, pH 6.8 buffer, 15 mM cTAB
# [13] = 24 hours, pH 6.8 buffer, 15 mM cTAB
# [14] = 30 hours, pH 6.8 buffer, 15 mM cTAB
# [15] = Formulation C5-12, Day 14 versus Day 1
# [16] = human, in vivo, oral, 3 Formulation C5-12 tablets daily, three Formulation C5-12 tablets daily for 14 days, non-fasting, Day 14, N = 14
# [17] = three Formulation C5-12 tablets daily for 14 days, non-fasting, Day 14, N = 14
# [18] = 3 Formulation C5-12 tablets, Regimen E (C5-12): three Formulation C5-12 tablets in the morning
# [19] = Regimen A (reference regimen): two Triple Tablets + one Single Tablet morning, one Single Tablet evening
# [20] = Regimen B (reference regimen): two Triple Tablets + one Single Tablet morning, one Single Tablet evening
# [21] = 3 film-coated Formulation C5-12 tablets daily, Regimen A (C5-12): three film-coated Formulation C5-12 tablets daily
smiles,measurement,setting,value
"COc1c(-c2ccc3cc(NS(C)(=O)=O)ccc3c2)cc(-n2ccc(=O)[nH]c2=O)cc1C(C)(C)C [Compound 4, N-(6-(3-tert-butyl-5-(2,4-dioxo-3,4-dihydropyrimidin-1(2H)-yl)-2-methoxyphenyl)naphthalen-2-yl)methanesulfonamide]",% Released,"[1]; 1 hour, 900 mL 0.05 M sodium phosphate buffer pH 6.8, 15 mM cTAB, USP Apparatus 2, 100 RPM, 37 °C",1%
same,mg Released,"[1]; 1 hour, pH 6.8 buffer, 15 mM cTAB",2.3 mg
same,% Released,[1]; [8],11%
same,mg Released,[1]; [8],25.7 mg
same,% Released,[1]; [9],18%
same,mg Released,[1]; [9],42.0 mg
same,% Released,[1]; [10],25%
same,mg Released,[1]; [10],58.3 mg
same,% Released,[1]; [11],39%
same,mg Released,[1]; [11],91.0 mg
same,% Released,[1]; [12],51%
same,mg Released,[1]; [12],119.0 mg
same,% Released,[1]; [13],70%
same,mg Released,[1]; [13],163.3 mg
same,% Released,[1]; [14],81%
same,mg Released,[1]; [14],189.0 mg
same,half-life,"[2]; 3 film-coated Formulation C5-12 tablets, Regimen A (C5-12): three film-coated Formulation C5-12 tablets, N = 172",6.91 h
same,AUC(0-t),"[2]; 3 film-coated Formulation C5-12 tablets, Regimen A (C5-12): three film-coated Formulation C5-12 tablets, N = 172, read-out: AUCt, geometric mean",12700 ng·h/mL
same,AUC(0-inf),"[2]; 3 film-coated Formulation C5-12 tablets, Regimen A (C5-12): three film-coated Formulation C5-12 tablets, N = 172, read-out: AUC∞, geometric mean",12900 ng·h/mL
same,Tmax,"[2]; 3 film-coated Formulation C5-12 tablets, Regimen A (C5-12): three film-coated Formulation C5-12 tablets, N = 172, read-out: Tmax, first value (geometric mean)",8 h
same,half-life,"[2]; Regimen B (reference regimen): two Triple Tablets + one Single Tablet morning, one Single Tablet evening, N = 171",5.8 h
same,AUC(0-t),"[2]; Regimen B (reference regimen): two Triple Tablets + one Single Tablet morning, one Single Tablet evening, N = 171, read-out: AUCt, geometric mean",14800 ng·h/mL
same,AUC(0-inf),"[2]; Regimen B (reference regimen): two Triple Tablets + one Single Tablet morning, one Single Tablet evening, N = 171, read-out: AUC∞, geometric mean",14900 ng·h/mL
same,Tmax,"[2]; Regimen B (reference regimen): two Triple Tablets + one Single Tablet morning, one Single Tablet evening, N = 171, read-out: Tmax, first value (geometric mean)",4 h
same,Cmax,"[2]; 3 film-coated Formulation C5-12 tablets, Regimen A (C5-12): three film-coated Formulation C5-12 tablets, N = 172, read-out: Cmax, geometric mean",1060 ng/mL
same,Cmax,"[2]; Regimen B (reference regimen): two Triple Tablets + one Single Tablet morning, one Single Tablet evening, N = 171, read-out: Cmax, geometric mean",1030 ng/mL
same,"AUC24, RATIO",[3]; [15],0.88
same,"C24, RATIO",[3]; [15],0.63
same,"Cmax, RATIO",[3]; [15],0.95
same,Tmax,"[3]; human, in vivo, oral, 3 Formulation C5-12 tablets daily, three Formulation C5-12 tablets daily for 14 days, non-fasting, Day 1, N = 14",9 h
same,AUC,"[3]; human, in vivo, oral, 3 Formulation C5-12 tablets daily, three Formulation C5-12 tablets daily for 14 days, non-fasting, Day 1, N = 14, read-out: AUC24, geometric mean",13600 ng·h/mL
same,concentration at 24 h,"[3]; human, in vivo, oral, 3 Formulation C5-12 tablets daily, three Formulation C5-12 tablets daily for 14 days, non-fasting, Day 1, N = 14, read-out: C24, geometric mean",272 ng/mL
same,Cmax,"[3]; human, in vivo, oral, 3 Formulation C5-12 tablets daily, three Formulation C5-12 tablets daily for 14 days, non-fasting, Day 1, N = 14, read-out: Cmax, geometric mean",1320 ng/mL
same,Tmax,[3]; [16],9.4 h
same,half-life,[3]; [16],5.9 h
same,AUC,"[3]; human, in vivo, oral, 3 Formulation C5-12 tablets daily, three Formulation C5-12 tablets daily for 14 days, non-fasting, Day 14, N = 14, read-out: AUC24, geometric mean",12000 ng·h/mL
same,concentration at 24 h,"[3]; human, in vivo, oral, 3 Formulation C5-12 tablets daily, three Formulation C5-12 tablets daily for 14 days, non-fasting, Day 14, N = 14, read-out: C24, geometric mean",172 ng/mL
same,Cmax,"[3]; human, in vivo, oral, 3 Formulation C5-12 tablets daily, three Formulation C5-12 tablets daily for 14 days, non-fasting, Day 14, N = 14, read-out: Cmax, geometric mean",1250 ng/mL
same,"C24, arithmetic mean, % CV",[3]; [17],"(210,61) ng/mL"
same,β,[3]; [17],0.117 h⁻¹
same,Solubility,[4]; aqueous,low solubility
same,Solubility in the gastrointestinal tract,[4]; free acid of Compound 4,poor solubility
same,half-life,[5]; [18],6.4 h
same,AUC(0-t),[5]; [18],18400 ng·h/mL
same,AUC(0-inf),[5]; [18],18600 ng·h/mL
same,Tmax,[5]; [18],9.7 h
same,half-life,[5]; [19],5.5 h
same,AUC(0-t),[5]; [19],18200 ng·h/mL
same,AUC(0-inf),[5]; [19],18400 ng·h/mL
same,Tmax,[5]; [19],3.1 h
same,concentration at 24 h,[5]; [18],290 ng/mL
same,Cmax,[5]; [18],1350 ng/mL
same,concentration at 24 h,[5]; [19],361 ng/mL
same,Cmax,[5]; [19],1240 ng/mL
same,"β, geometric mean",[6]; Regimen A (C5-12): three film-coated Formulation C5-12 tablets daily,0.104 h⁻¹
same,"β, geometric mean",[6]; [20],0.122 h⁻¹
same,"Exposures (Cmax,ss and AUC24,ss) versus the reference regimen","[6]; Formulation C5-12, point estimate and 90% confidence interval for the GMR within 0.80-1.25",bioequivalent
same,"C24,ss lower than C24,ss (Ctrough) for the reference regimen",[6]; Formulation C5-12 relative to the reference regimen,29%
same,half-life,[6]; [21],6.2 h
same,AUC,[6]; [21],8810 ng·h/mL
same,concentration at 24 h,[6]; [21],116 ng/mL
same,Cmax,[6]; [21],799 ng/mL
same,Tmax,[6]; [21],8 h
same,half-life,[6]; [20],5.5 h
same,AUC,[6]; [20],9770 ng·h/mL
same,concentration at 24 h,[6]; [20],162 ng/mL
same,Cmax,[6]; [20],879 ng/mL
same,Tmax,[6]; [20],4 h
same,Permeability,[7],good permeability

# — patent US10105365B2, “Solid antiviral dosage forms” (AbbVie Inc., priority 2014, dated 2018)
